Assays:
[1] = assay type: in vivo, rat; conditions: rat, in vivo, po, 335 mg/kg
Method: Rats which had not been fed for 24 hours were used. The AST product was administered orally as the acid or the sodium salt at a dosage of 335 mg/Kg suspended in 1% carboxymethylcellulose. […] Both the methods of treatment and the observation time were identical for the 3 groups of animals.

Acute toxicity, rat = conditions: in vivo, intravenous, sodium salt solution
Method: (§1) Tests were carried out both on mice and rats by means of oral, subcutaneous, intraperitoneal and intravenous administration.
(§2) In the case of oral administration, the product was used in the acid form suspended in an aqueous solution of carboxymethylcellulose, whilst in the case of parenteral administration it was made soluble by salt formation with sodium hydroxide in a physiological solution with a neutral final pH.
(§3) The results are given in the following table, together with the results found in the literature for acetylsalicylic acid (ASA).
(§4) Wherever possible, the values of the LD50 were calculated using the probit method; if no mortality took place even at very high dosages, the maximum dosage tested has been given.

[2] = Analgesic activity: convulsions produced by phenylquinone; assay type: in vivo, mouse; conditions: oral, ASA 200, AST 300 mg/Kg
Method: (A) Test of convulsions produced by phenylquinone injected into mice by the intraperitoneal route. The AST product was administered orally both in the acid form (AST Ac). and as the sodium salt (AST Na). It was compared with a molar equivalent dosage of acetylsalicylic acid and with a carboxymethylcellulose placebo. The convulsions were induced at varying intervals from the oral treatment counting from the first 20 minutes after the injection of phenylquinone.

[3] = Antipyretic activity: pyrexia from subcutaneous yeast in the rat; assay type: in vivo; conditions: p.o., ASA 200, AST 300 mg/Kg
Method: Pyrexia from subcutaneous yeast in the rat. The AST product was administered orally in the acid from and the salt form with sodium, and by the intraperitoneal method in the salt form. It was compared with a molar equivalent dose of acetylsalicylic acid administered orally and with a carboxymethylcellulose placebo. The pyrexia was induced with a subcutaneous injection of yeast on the evening prior to the drug treatment, i.e. 16 hours before.

[4] = Pharmaco-toxicological tests on laboratory animals (summary); assay type: in vivo
[5] = Edema as a result of nystatin in the rat's paw; assay type: in vivo; conditions: p.o.
Method: (B) Edema as a result of nystatin in the rat's paw. The long duration of this type of edema enabled the animals to be repeatedly treated in order to ascertain the presence if any of the protracted effect of the AST product also using parenteral administration. The comparison was carried out using a molar equivalent dose of acetylsalicylic acid administrated orally and with the carboxymethylcellulose placebo also only administered orally. The AST product was used in the acid form orally and in the salt form using intraperitoneal administration.
The dosages of the drugs, always proportional to one another, were varied from day to day, i.e.: the first day a dosage of 200 mg/Kg of ASA and 300 mg/Kg of AST; the second day a double dose of each; the third day a double dose of each divided into two equal components administered with a spacing of 9 hours (10 am and 7 pm respectively); the fourth day no treatment in order to check the length of the effect after the fourth administration.
The […] was injected into the paw on the night before the first treatment with the drugs and the volume of the paw was measured in hundredths of milliliter.

[6] = Analgesic activity: mechanical pressure test on inflamed rat's paw; assay type: in vivo; conditions: oral, ASA 200, AST 300 mg/Kg
Method: (B) Mechanical pressure test on inflamed rat's paw. The AST product was administered both in the acid and sodium salt form by the oral method. It was compared with a molar equivalent dosage of acetylsalicylic acid and with a carboxymethylcellulose placebo. The inflammation of the paw was induced by a local injection of yeast simultaneously with the oral treatment with the drugs and the tenderness was measured in grams of mechanical pressure required to cause a reaction in the animal.

Acute toxicity, mouse = conditions: in vivo
Method: as §1, §2, §3, §4

[7] = Edema resulting from yeast in the paw of the rat; assay type: in vivo; conditions: oral, ASA 200, AST 300 mg/Kg
Method: (A) Edema resulting from yeast in the paw of the rat. The AST product was administered orally both in the acid and sodium salt form. It was compared with a molar equivalent dose of acetylsalicylic acid and with carboxymethylcellulose placebo. The edema of the paw was induced with a local injection of the yeast simultaneously with the oral treatment with the drugs, and the volume of the paw was measured in hundredths of milliliter.

[8] = Protection against hepatic intoxication by CCl4 and cold, Compound B (BSF in blood); assay type: in vivo; conditions: 500 mg/kg endoperitoneal
Method: Oral administration of 5 ml/kg of a 20% solution of CCl4 in oil, with simultaneous endoperitoneal administration of 500 mg/kg of Compound B, was followed by exposure for 5 hours at 4° C. BSF in the blood (30 mg/kg i.v.) was tested. A comparison product, homocysteinethiolactone (OCT) was employed.
10 Animals were treated per group, and the results expressed as percentage change with respect to the controls were as shown in Table 4.

[9] = Curative effect on intoxication by CCl4; assay type: in vivo, rat; conditions: 100 mg/kg endoperitoneal 1 h after CCl4; BSF tested after 4 hours
Method: Oral administration to rats of 10 ml/kg of a 10% solution of CCl4 in oil was followed with endoperitoneal administration of 100 mg/kg of Compound B after 1 hour. BSF (50 mg/kg i.v.) in the blood was tested after 4 hours. 5 Animals were used per group, and expressed as percentage change with respect to the control, the Compound B gave a reduction of -34.2.

[10] = Antilipemic action, Morris, Handler or Nath diet, Compound B; assay type: in vivo, Wistar rat; conditions: for Bile BSF, percentage change vs control / Liver total lipids, percentage change vs control / Serum total cholesterol, percentage change vs control / Serum total lipids, percentage change vs control / Liver fresh organic weight, percentage change vs control / Serum beta-lipoproteins, percentage change vs control: 45 days, 200 mg/kg orally
Method: Wistar rats were treated for 45 days with a Morris diet, a Handler diet or a Nath diet. Simultaneously with the diet they received each day 200 mg/kg of Compound B or choline (except for the Nath diet) orally.

[11] = Intoxication by CCl4 and curative treatment; assay type: in vivo; conditions: 100 mg/kg endoperitoneal on days 1, 2 and 3
Method: On the first day there was oral administration of 10 ml/kg of a 10% solution of CCl4 in oil and simultaneous endoperitoneal administration of 100 mg/kg of Compound B. On the second and third days, there was endoperitoneal administration of 100 mg/kg of Compound B, then testing of BSF (50 mg/kg i.v.) in the blood.
5 Animals were used per group, and expressed as pecentage variation with respect to the control, there was a reduction by Compound B of 16.1.

[12] = BSF bile excretion after CCl4; assay type: in vivo, rat; conditions: 100 mg/kg endoperitoneal 4 days, CCl4 10% 10 ml/kg
Method: Endoperitoneal administration to rats of 100 mg/kg of Compound B for 4 days was followed on the fourth day, one hour after the last administration, with the rats receiving 10 ml/kg orally of a 10% solution of CCl4 in oil. BSF (5 mg/kg) in the bile was tested.

[13] = Toxicology, oral treatment of mice for 180 days, Compound B; assay type: in vivo, mouse; conditions: 200 mg/kg orally

SMILES: CC(=O)Oc1ccccc1C(=O)OCCN(CCOC(=O)c1ccccc1OC(C)=O)CCS(=O)(=O)O [AST, N,N-di(acetylsalicyloyloxy ethyl)taurine]
- Alteration of the gastric or intestinal mucosa [1]: did not show any alteration of the gastric or intestinal mucosa
- LD50 (Acute toxicity, rat): 530 mg/kg
- Inhibition % of convulsions in respect of treatment with placebo ([2]; 1h): 10%
- Inhibition % of convulsions in respect of treatment with placebo ([2]; 2h): 11%
- Inhibition % of convulsions in respect of treatment with placebo ([2]; 4h): 0%
- % Inhibition of the pyrexia in respect of treatment with placebo ([3]; 1h): 18%
- % Inhibition of the pyrexia in respect of treatment with placebo ([3]; 2h): 26%
- % Inhibition of the pyrexia in respect of treatment with placebo ([3]; 4h): 30%
- % Inhibition of the pyrexia in respect of treatment with placebo ([3]; 6h): 25%
- % Inhibition of the pyrexia in respect of treatment with placebo ([3]; 8h): 9%
- Antiinflammatory, analgesic and antipyretic properties (in words) ([4]; compared with acetylsalicylic acid): marked antiinflammatory, analgesic and antipyretic properties comparable to those of acetylsalicylic acid
- Duration of pharmacodynamic activity in comparison with acetylsalicylic acid (in words) ([4]; in vivo): more prolonged pharmacodynamic activity
- Gastric injury (in words) ([4]; in vivo): did not exert any appreciable gastric injury
- Toxicity in comparison with acetylsalicylic acid (in words) ([4]; in vivo): less toxic
- % Inhibition of the edema in respect of treatment with placebo ([5]; 1st day, 2h after 1st dose, ASA 200, AST Ac 300 mg/Kg): 0%
- % Inhibition of the edema in respect of treatment with placebo ([5]; 1st day, 4h after 1st dose, ASA 200, AST Ac 300 mg/Kg): 3%
- % Inhibition of the edema in respect of treatment with placebo ([5]; 1st day, 8h after 1st dose, ASA 200, AST Ac 300 mg/Kg): 3%
- % Inhibition of the edema in respect of treatment with placebo ([5]; 2nd day, 2h after 2nd dose, ASA 400, AST Ac 600 mg/Kg): 3%
- % Inhibition of the edema in respect of treatment with placebo ([5]; 2nd day, 4h after 2nd dose, ASA 400, AST Ac 600 mg/Kg): 2%
- % Inhibition of the edema in respect of treatment with placebo ([5]; 2nd day, 8h after 2nd dose, ASA 400, AST Ac 600 mg/Kg): 10%
- % Inhibition of the edema in respect of treatment with placebo ([5]; 3rd day, 2h after 3rd dose, ASA 200, AST Ac 300 mg/Kg): 8%
- % Inhibition of the edema in respect of treatment with placebo ([5]; 3rd day, 4h after 3rd dose, ASA 200, AST Ac 300 mg/Kg): 7%
- % Inhibition of the edema in respect of treatment with placebo ([5]; 3rd day, 8h after 3rd dose, ASA 200, AST Ac 300 mg/Kg): 6%
- % Inhibition of the edema in respect of treatment with placebo ([5]; 4th day, 13h after 4th dose, ASA 200, AST Ac 300 mg/Kg): 3%
- % Inhibition of the edema in respect of treatment with placebo ([5]; 4th day, 17h after 4th dose, ASA 200, AST Ac 300 mg/Kg): 3%
- % Inhibition of the edema in respect of treatment with placebo ([5]; 4th day, 23h after 4th dose, ASA 200, AST Ac 300 mg/Kg): 0%
- % Inhibition of the hyperalgesia in respect of treatment with placebo ([6]; 1h): 47%
- % Inhibition of the hyperalgesia in respect of treatment with placebo ([6]; 3h): 47%
- % Inhibition of the hyperalgesia in respect of treatment with placebo ([6]; 5h): 19%
- LD50 (Acute toxicity, mouse; intravenous, sodium salt solution): 520 mg/kg
- LD50 (Acute toxicity, mouse; ip, intraperitoneal, sodium salt solution): 1300 mg/kg
- LD50 (Acute toxicity, mouse; oral, acid form in carboxymethylcellulose): 5000 mg/kg
- LD50 (Acute toxicity, mouse; sc, subcutaneous, sodium salt solution): 2000 mg/kg
- Inhibition of the edema with respect to treatment with placebo ([7]; 1h): 42
- Inhibition of the edema with respect to treatment with placebo ([7]; 3h): 38
- Inhibition of the edema with respect to treatment with placebo ([7]; 5h): 48

SMILES: COc1cc(C(=O)OCCN(CCOC(=O)c2cc(OC)c(OC)c(OC)c2)CCS(=O)(=O)O)cc(OC)c1OC [Compound B, N,N-di-[2-(3,4,5-trimethoxybenzoyloxy)ethyl]taurine]
- Hepatic intoxication protection, percentage change of BSF in blood vs controls ([8]; test number 1): -27.5%
- Hepatic intoxication protection, percentage change of BSF in blood vs controls ([8]; test number 2): -17.0%
- BSF in the blood, percentage change vs control (reduction) [9]: -34.2%
- Bile BSF, percentage change vs control ([10]; Handler diet, B and Choline): +23.4%
- Liver total lipids, percentage change vs control ([10]; Handler diet, B and Choline): -29.1%
- Serum total cholesterol, percentage change vs control ([10]; Handler diet, B and Choline): -7.3%
- Serum total lipids, percentage change vs control ([10]; Handler diet, B and Choline): +9.1%
- Liver fresh organic weight, percentage change vs control ([10]; Handler diet, second B column): -13.3%
- Liver fresh organic weight, percentage change vs control ([10]; Handler diet): -24.9%
- Liver total lipids, percentage change vs control ([10]; Handler diet): -37.7%
- Serum total cholesterol, percentage change vs control ([10]; Handler diet): -6.3%
- Serum total lipids, percentage change vs control ([10]; Handler diet): -15.9%
- Bile BSF, percentage change vs control ([10]; Morris diet): +23.8%
- Liver total lipids, percentage change vs control ([10]; Morris diet): -11.5%
- Serum beta-lipoproteins, percentage change vs control ([10]; Morris diet): -23.7%
- Serum total cholesterol, percentage change vs control ([10]; Morris diet): -23.2%
- Serum total lipids, percentage change vs control ([10]; Morris diet): -22.4%
- Liver total lipids, percentage change vs control ([10]; Nath diet): -23.4%
- Serum beta-lipoproteins, percentage change vs control ([10]; Nath diet): -29.7%
- Serum total cholesterol, percentage change vs control ([10]; Nath diet): -35.2%
- Serum total lipids, percentage change vs control ([10]; Nath diet): -20.6%
- Oral absorption (deduced from diet tests) ([10]; oral, powder with the diet): good oral absorption
- BSF in the blood, percentage variation vs control (reduction) [11]: 16.1%
- BSF bile excretion, percentage of excretion ([12]; 30 min.): 44.1%
- BSF bile excretion, percentage of excretion ([12]; 60 min.): 50.9%
- Mortality [13]: No mortality occurred

Source: patent US4259332A, “Novel taurine derivatives” (priority 1979, dated 1981)
